Data set [1] can be described thus: Coupled oxidation of β-carotene and linoleic acid (linoleic acid autoxidation assay). As to conditions: 15 µg/mL; for Linoleic acid autoxidation inhibition (AA), 1 h: t = 60 min; for Linoleic acid autoxidation inhibition (AA), 1 h / Linoleic acid autoxidation inhibition (AA), 2 h: β-carotene bleaching, 50 °C; for Linoleic acid autoxidation inhibition (AA), 2 h: t = 120 min; for antioxidant activity in β-carotene/linoleic acid model (in words): compared with BHT standard. The method, then:
Heat-induced oxidation of an aqueous emulsion system of β-carotene and linoleic acid was measured by the method described by Pratt (1992). A quantity of linoleic acid (20 mg) and Tween 20 (200 mg) were placed in a flask, and a solution of β-carotene (2 mg) in CHCl3 (10 mL) was added. After removal of CHCl3, oxygenated distilled water (50 mL) was added. Aliquots of each compound (200 µL), dissolved in ethanol to a 15 µg/mL solution, were added to each flask with shaking. Samples without test compounds were used as blanks and sample with 2,6 di-tert-butyl-4-methylphenol (BHT) was used as a control substance. Samples were subjected to the oxidation, by placing them in an oven at 50 °C for 3 hours. The absorbance was red at 470 nm at regular intervals to monitor the rate of bleaching of ß-carotene. The antioxidant activities was expressed as AA, calculated with the equation Inhibitory ratio (AA) = 100 [1−A0−At]/ A00−A0t; where A0 was the absorbance at the beginning of the incubation, with compound; At was the absorbance at the time t, with compound; A00 was the absorbance at beginning of the incubation, without compound; A0t the absorbance at the time t, without compound. Each experiment was performed in triplicate.

A short description of data set [2]: TEAC free radical scavenging assay (ABTS radical cation). As to conditions: for TEAC: Trolox concentration with inhibition equivalent to a 1 mM solution of the compound, ABTS+., 734 nm, mean ± SD, triplicate. As to the method: The TEAC value is based on the ability of the antioxidant to scavenge the ABTS^+.. ABTS^+. cation radical was produced by the reaction between ABTS (7 mM) in water and potassium persulfate (2.45 mM), kept in the dark at room temperature for 12 hours. ABTS^+. is a blue-green cromogen with a characteristic absorption at 734 nm. The ABTS^+. solution was diluted with PBS, pH 7.4, to an absorbance of 0.70 at 734 nm and equilibrated at 30 °C.
Samples were diluted with methanol to have 0.3 mM, 0.5 mM, 1 mM, 1.5 mM, 2 mM solutions. The reaction was enhanced by the addition of diluted ABTS (1 mL) to 10 µL of each solution of sample or Trolox (standard), or […] of methanol (blank). The determination was repeated three times for each sample solution. The percentage inhibition of absorbance at 734 nm was calculated for each concentration in function of the blank’s absorbance. The percentage inhibition was plotted as a function of compound or standard concentration. The antioxidant activities of compounds 1-6 are expressed as TEAC, Trolox equivalent antioxidant activity. TEAC value is defined as the concentration of standard Trolox solution with equivalent percentage inhibition to a 1 mM concentration solution of the compound after investigation.

Data set [3] can be described thus: Superoxide anion enzymatic generation assay (xanthine/xanthine oxidase, NBT reduction). As to conditions: xanthine/XOD system, 560 nm, mean ± SD, read-out: Superoxide anion scavenging activity IC50. The format is biochemical. As to the method: Superoxide anion was generated in an enzymatic system by preparing a mixture of xanthine and xanthine oxidase. The reaction mixture included 0.1 mM EDTA, 50 µg/mL bovine serum albumine (BSA), 25 µM nitroblue tetrazolium, 0.1 mM xanthine and 3.3 × 10^−3 units xanthine oxidase (XOD) in 40 mM sodium carbonate buffer (pH 10.2) in a final volume of 3 mL. After incubation at 25 °C with increasing concentrations of samples, the absorbance of formazan produced was determined at 560 nm.
The inhibitory effect of samples on the generation of superoxide anion were estimated by the equation: Inhibitory ratio = (A0−A1) × 100/ A0; where A0 absorbance with no addition of sample and A1 absorbance with addition of sample. Inhibitory ratio for each sample was plotted as a function of the concentration, then was calculated the IC50 value, with the statistical method of linear regression.

In data set [4] the test system is Caco-2 cells. Kind of data set: H2O2-induced cytotoxicity in differentiated Caco-2 cells, neutral red assay. The format is cell-based, human. The note with it: for viability at 250 µM: compound 250 μmol/L; for protection against H2O2-induced toxicity (in words): compound 250 µmol/L, pretreatment before 10 mmol/L H2O2. As to the method:
The Caco-2 cells strain was obtained from Prof. A. Leone research group (Dipartimento di Scienze Farmaceutiche, Sezione Biologica, Università degli Studi di Salerno, Fisciano, Italy) and used between passages 75 to 90. The cells were routinely maintained in DMEM, containing 200 mL/L FCS, 10 mL/L of 100× nonessential aminoacids, 2 mmol/L L-glutamine, 5 × 10^4 IU/L penicillin, 50 mg/L streptomycin at 37 °C in a 5% CO2 atmosphere at 90-100% relative humidity. Cell were grown in 10-cm petri dishes. For experiments, cells were seeded at a density of 90,000 cells/cm^2 in a Transwell insert, and the medium (0.1 mL in the insert and 0.8 mL in the well) was changed every 48 h. Fourteen to sixteen days after confluence, the integrity of the monolayer of differentiated cells was monitored according to the method of Hildago et al..
An iron-free medium (EMEM) was used for the oxidative stress induction experiments. The oxidative stress was induced in the apical compartment of the transwell insert by addition of H2O2. After 20 h of incubation, several oxidative stress markers were measured. To assay the capacity of these compounds to protect Caco-2 cells from ROM-mediated oxidative injury, cells were preincubated for 4 h with compounds, which had been added to the apical side of monolayer. After the end of preincubation time, the medium was changed before the addition of the of the oxidative stress-inducing agents.
We assessed the cytotoxicity of ROM on Caco-2 by the viability test of neutral red uptake, performed according to the procedure of Fautz et al.. After oxidative stress induction the medium in the insert was removed and replaced with 0.1 mL of fresh medium containing […] neutral red. At the end of 3 h of incubation, the medium was removed and cells were washed twice with PBS; finally the incorporated neutral red was released from cells by incubation for 15 min at room temperature in the presence of 1 mL of cell lysis buffer containing acetic acid (1%, v/v) and ethanol (50% v/v). To measure the dye taken up, the cell lysis products were centrifuged and supernatants spectrophotometrically measured at 540 nm.

Data set [5] deals with T1, xanthine oxidase (XOD) (Bos taurus, UniProt P80457).
T1 construct: purchased Sigma Aldrich (Gillingam, Dorset, U.K.)
Briefly: Xanthine oxidase inhibition assay (uric acid formation). The format is biochemical. The note with it: for IC50: uric acid from xanthine, 295 nm, mean ± SD. As to the method: Xanthine oxidase inhibition activity was evaluated by the spectrophotometric measurement of the formation of uric acid by xanthine. A 100 µM solution of xanthine in 0.1 M phosphate buffer pH 7.8 with 0.04 units/mL of xanthine oxidase was incubated for 10 min at room temperature and read at 295 nm against a blank sample. Various concentrations of testing compounds were added to samples before the enzyme has been instilled and their effect on the generation of uric acid was used to calculate regression lines and IC50 values.

Setting [6] is: Homo sapiens, Caco-2, 4 h preincubation, then 10 mmol/L H2O2 for 20 h, neutral red, read-out: cell viability.

Structures are written as SMILES. “Also recorded” adds a separate entry of the source.

T1 sequence (P80457 2-1332 limits assumed): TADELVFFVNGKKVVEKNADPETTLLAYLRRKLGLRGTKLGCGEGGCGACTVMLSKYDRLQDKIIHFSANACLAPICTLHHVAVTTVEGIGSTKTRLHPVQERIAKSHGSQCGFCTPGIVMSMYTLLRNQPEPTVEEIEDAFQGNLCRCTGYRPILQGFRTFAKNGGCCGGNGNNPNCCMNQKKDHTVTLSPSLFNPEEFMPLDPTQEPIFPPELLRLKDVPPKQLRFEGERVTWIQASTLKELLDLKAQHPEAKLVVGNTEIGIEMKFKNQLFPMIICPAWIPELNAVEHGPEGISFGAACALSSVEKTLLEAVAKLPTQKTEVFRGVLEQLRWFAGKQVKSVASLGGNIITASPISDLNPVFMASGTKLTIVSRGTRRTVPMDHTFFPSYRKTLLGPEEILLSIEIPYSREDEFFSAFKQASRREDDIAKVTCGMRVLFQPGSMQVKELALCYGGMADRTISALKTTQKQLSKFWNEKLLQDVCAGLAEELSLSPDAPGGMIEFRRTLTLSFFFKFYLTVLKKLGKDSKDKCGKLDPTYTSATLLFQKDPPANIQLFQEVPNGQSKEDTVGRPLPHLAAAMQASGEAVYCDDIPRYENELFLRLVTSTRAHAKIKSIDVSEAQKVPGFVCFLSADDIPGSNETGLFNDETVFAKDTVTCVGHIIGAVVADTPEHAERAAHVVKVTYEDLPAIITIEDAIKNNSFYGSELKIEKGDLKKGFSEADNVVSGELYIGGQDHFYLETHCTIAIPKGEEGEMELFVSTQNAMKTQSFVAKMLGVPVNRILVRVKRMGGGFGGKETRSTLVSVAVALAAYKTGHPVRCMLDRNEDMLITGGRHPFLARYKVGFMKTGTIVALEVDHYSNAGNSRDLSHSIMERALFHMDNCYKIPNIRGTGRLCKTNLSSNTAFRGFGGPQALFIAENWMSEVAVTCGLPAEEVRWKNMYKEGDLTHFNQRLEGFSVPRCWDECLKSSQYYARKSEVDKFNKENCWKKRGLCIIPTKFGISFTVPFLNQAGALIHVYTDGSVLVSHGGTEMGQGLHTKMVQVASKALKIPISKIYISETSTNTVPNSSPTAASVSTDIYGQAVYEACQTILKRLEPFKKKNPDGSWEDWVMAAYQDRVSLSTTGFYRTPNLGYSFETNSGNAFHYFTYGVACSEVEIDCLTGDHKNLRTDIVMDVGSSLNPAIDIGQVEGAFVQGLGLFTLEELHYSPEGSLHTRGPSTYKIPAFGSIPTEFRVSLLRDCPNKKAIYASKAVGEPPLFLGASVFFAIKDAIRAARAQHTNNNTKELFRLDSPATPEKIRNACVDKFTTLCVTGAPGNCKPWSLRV

As to `Cc1cc(C(C)(C)C)c(O)c(C(C)(C)C)c1` [BHT, 2,6 di-tert-butyl-4-methylphenol, reference compound], in data set [1], the “Linoleic acid autoxidation inhibition (AA), 1 h” value came to 60.00% and the “Linoleic acid autoxidation inhibition (AA), 2 h” value is reported as 51.07%.
The IC50 is the concentration that gives 50% inhibition. Broadly, the viability is a per cent measure of how many cells are alive, often set against a control. In the case of `COc1cc(O)c(C(=O)O)c(CCc2ccc(O)cc2)c1` [Compound 1, 5,12-dihydroxy-3-methoxy-dibenzyl-6-carboxylic acid], in data set [2], the “radical scavenging activity in ABTS/TEAC test (in words)” value is “most active” and the TEAC amounted to 1.98 ± 0.05 mM. Besides, in data set [1], the “antioxidant activity in β-carotene/linoleic acid model (in words)” value is reported as “highest activity after 1h; also recorded: moderate activity”; the “Linoleic acid autoxidation inhibition (AA), 1 h” value is listed as 32.60%; the “Linoleic acid autoxidation inhibition (AA), 2 h” value was 11.70%. Further, the half-maximal inhibitory concentration (IC50) in data set [3] is 96.93 ± 0.42 µM. In data set [4] (setting [6]), the viability at 250 µM was 80%. Moreover, in data set [4] (Homo sapiens, Caco-2, compound 500 μmol/L, 4 h preincubation, then 10 mmol/L H2O2 for 20 h, neutral red, read-out: cell viability), the viability at 500 µM came to 88%. For the same molecule, the “protection against H2O2-induced toxicity (in words)” value in data set [4] was “inactive”. Further, the “protection against H2O2-induced alterations (in words)” value in data set [4] (compound 500 µmol/L preincubation) is recorded as “prevented”. For the same molecule, in data set [5], the “activity as direct inhibitor of xanthine oxidase (in words)” value (from here on “activity as direct inhibitor”) is reported as “no activity” and the concentration for half-maximal inhibition (IC50) was over 100 µM.
As for `COc1cc(CCc2ccc(O)cc2)c(C(=O)O)c(OC(C)=O)c1` [Compound 2, 5-acetyloxy-12-hydroxy-3-methoxybibenzyl-6-carboxylic acid], the TEAC in data set [2] worked out at 1.38 ± 0.01 mM. In addition, in data set [1], the “antioxidant activity in β-carotene/linoleic acid model (in words)” value is reported as “moderate activity”; the “Linoleic acid autoxidation inhibition (AA), 1 h” value worked out at 28.51%; the “Linoleic acid autoxidation inhibition (AA), 2 h” value turned out to be 19.16%. In data set [3], the IC50 was found to be 81.11 ± 0.68 µM. Also, in data set [5], the “activity as direct inhibitor” value was “moderate activity” and the IC50 came out at 71.39 ± 0.45 µM.
With `COc1cc(CCc2ccc(O)cc2)cc(Oc2ccc(CCc3cc(OC)cc(O)c3C(=O)O)cc2)c1` [Compound 3, 12-O-[3’-(5’-methoxy-12’-hydroxy)-bibenzyl]-5-hydroxy-3-methoxybibenzyl-6-carboxylic acid], the TEAC in data set [2] is 1.22 ± 0.02 mM. In data set [1], the “antioxidant activity in β-carotene/linoleic acid model (in words)” value was “no activity”; the “Linoleic acid autoxidation inhibition (AA), 1 h” value stood at 0%; the “Linoleic acid autoxidation inhibition (AA), 2 h” value worked out at 0%. Moreover, the IC50 in data set [3] amounted to 78.2 ± 1.15 µM. Besides, in data set [5], the “activity as direct inhibitor” value is “no activity” and the IC50 is over 100 µM.
On to `COc1cc(CCc2ccc(Oc3cc(CCc4ccc(Oc5cc(CCc6ccc(O)cc6)c(C(=O)O)c(OC)c5)cc4)c(C(=O)O)c(OC)c3)cc2)c(C(=O)O)c(OC)c1` [Compound 4, 3-O-{12’-[12’’-O-(3’’,5’’-dimethoxy-6’’-carboxybibenzyl)]-5’-methoxy-6’-carboxybibenzyl}-12-hydroxy-5-methoxybibenzyl-6-carboxylic acid], for which, in data set [2], the TEAC is 1.5 ± 0.03 mM. For the same molecule, in data set [1], the “antioxidant activity in β-carotene/linoleic acid model (in words)” value is “no activity”; the “Linoleic acid autoxidation inhibition (AA), 1 h” value turned out to be 0%; the “Linoleic acid autoxidation inhibition (AA), 2 h” value turned out to be 0%. Also, in data set [3], the 50% inhibitory concentration (IC50) came to 81.3 ± 2.01 µM. In data set [5], the “activity as direct inhibitor” value is recorded as “no activity” and the IC50 is over 100 µM.
As to `COc1ccc(CCc2cc(OC)cc(O)c2C(=O)O)cc1` [Compound 5, 5-hydroxy-3,12-dimethoxy-6-carboxybibenzyl], the TEAC in data set [2] worked out at 1.21 ± 0.01 mM. For the same molecule, in data set [1], the “antioxidant activity in β-carotene/linoleic acid model (in words)” value was “moderate activity”; the “Linoleic acid autoxidation inhibition (AA), 1 h” value is listed as 26.56%; the “Linoleic acid autoxidation inhibition (AA), 2 h” value was 19.72%. Also, in data set [3], the IC50 is 58.4 ± 1.18 µM. Also, in data set [5], the “activity as direct inhibitor” value was “moderate activity” and inhibition was half-maximal at 64 ± 2.13 µM (IC50).
Regarding `COc1cc(O)cc(CCc2ccc(O)cc2)c1` [Compound 6, 3,12-dihydroxy-5-methoxybibenzyl], in data set [2], the “radical scavenging activity in ABTS/TEAC test (in words)” value was “most active compound” and the TEAC turned out to be 2.55 ± 0.02 mM. In data set [1], the “antioxidant activity in β-carotene/linoleic acid model (in words)” value is reported as “moderate activity”; the “Linoleic acid autoxidation inhibition (AA), 1 h” value stood at 29.35%; the “Linoleic acid autoxidation inhibition (AA), 2 h” value came out at 7.31%. In addition, in data set [3], the IC50 came to 83.3 ± 1.06 µM. Further, in data set [4] (Homo sapiens, Caco-2, compound 125 μmol/L, 4 h preincubation, then 10 mmol/L H2O2 for 20 h, neutral red, read-out: cell viability), the viability at 125 µM came to 90%. In addition, the viability at 250 µM in data set [4] (setting [6]) was 98%. Also, the “protection against H2O2-induced toxicity (in words)” value in data set [4] is reported as “no decrease in cell viability; also recorded: prevent H2O2-induced cytotoxicity; also recorded: prevented”. In addition, in data set [5], the “activity as direct inhibitor” value is “no activity” and the IC50 is over 100 µM.
One may read the cell viability as the share of living cells, or the viability signal relative to a control. Read a low cell viability as a greater loss of cells. Consider `OO` [Compound H2O2, hydrogen peroxide, reference compound], for which, in data set [4] (20 h of treatment with 10 mmol/L H2O2), the “loss of cell viability” value is recorded as “about 25%”. Moreover, the cell viability in data set [4] (H2O2 10 mmol/L alone, 20 h, neutral red) amounted to 75%.
For the molecule `Oc1ccc(CCc2cc(O)cc(O)c2)cc1` [Dihydroresveratrol, reference compound], the TEAC in data set [2] is 2.3 ± 0.07 mM. In data set [1], the “antioxidant activity in β-carotene/linoleic acid model (in words)” value is recorded as “lower activity”; the “Linoleic acid autoxidation inhibition (AA), 1 h” value amounted to 16.11%; the “Linoleic acid autoxidation inhibition (AA), 2 h” value stood at 20.12%. In addition, in data set [3], the concentration for half-maximal inhibition (IC50) came out at 60.9 ± 1.12 µM. For the same molecule, the concentration for half-maximal inhibition (IC50) in data set [5] is over 100 µM.
Turning to `O=c1c(O)c(-c2ccc(O)c(O)c2)oc2cc(O)cc(O)c12` [Quercetin, quercetin, reference compound], the TEAC in data set [2] was found to be 2.91 ± 0.02 mM.

For the origin of these results see publication PMC6259833, “Antioxidant Bibenzyl Derivatives from Notholaena nivea Desv” (Molecules, 2011).
